Results published in US9096591B2, “Tetracyclic compounds” (Medivation Technologies, Inc., priority 2007, dated 2015).
“And” between values parts separate entries of the source, which are not always exact repeats. Equal entries are not always repeated.

Columns and labels:
AMPA receptors = test: AMPA-receptor activity: kainic acid-induced currents in Purkinje cells (patch-clamp); type: cell-based, rat; settings: mean±SEM, control=100%
Protocol: The analysis of effects of the testing compounds on AMPA receptors was carried out using an electrophysiological patch-clamp method in whole cell configuration (Hamill et al., 1980) of the Purkinje cell fresh isolated from the cerebellum of juvenile rats (12-15 days). The isolation was carried out using a modified method (Kaneda et al., 1988) in which cerebral 400-600 μm sections were incubated for 60 min in the temperature controlled chamber in 10 mL of buffer solution (150 mM NaCl, 5 mM KCl, 2 mM CaCl2, 2 mM MgSO4.7H2O, 10 mM HEPES, 15 mM glucose, pH 7.42). The incubation solution was exchanged with the incubation buffer with pronase (2 mg/mL) and collagenase (1 mg/mL) for 70 min. After a 20 min wash with the original buffer, all sections were placed into the Petri dish and were separated using a Pasteur pipette. All solutions were constantly aerated with 100% O2 at 34° C. The composition of extracellular saline was: 150 mM NaCl, 5 mM KCl, 2.6 mM CaCl2, 2 mM MgSO4.7H2O, 10 mM HEPES, 15 mM glucose, pH 7.36. The transmembrane current was induced as a result of the activation of AMPA receptors by a superfusion with the agonist solution (kainic acid). The currents were measured using borosilicate microelectrodes (resistance […]) filled with 100 mM KCl, 11 mM EGTA, 1 mM CaCl2, 1 mM MgCl2, 10 mM HEPES, 5 mM ATP, pH 7.2. The currents were registered using EPC-9 (HEKA, Germany) and recorded with Pulse software package which was also purchased from HEKA. The analysis of observations was carried out using Pulsefit (HEKA, Germany) and the statistical significance was analyzed using a Student's T-test criteria. Data are presented as mean±SEM in % of control values.
Compounds of the invention were tested in 3-5 neurons. Every concentration of compound was repeated three-four times in every neuron. Data are presented as mean±SEM in % of Control values (Table 13+14, FIGS. 8-12). Control value=100%.

rat brain mitochondria = test: Mitochondrial membrane potential (safranine test); type: biochemical, Wistar rats; settings: suggested from membrane potential and calcium retention data (Table 15)
Protocol: The same experimental conditions were used for the assessment of alterations of the mitochondrial membrane potential, except that safranine was included in incubation medium at a final concentration of 10 mkM and succinate was added before the compounds of the invention. This concentration of safranine was determined before hand as the optimal compromise between signal/baseline ratio and interference of safranine itself with swelling induced by Ca/Pi (safranine tended to enhance Ca/Pi-induced swelling at concentrations above 20 mkM). Changes in the status of the mPT pore were assessed spectrophotometrically at 554 and 524 nm in a cuvette in a Beckman DU 640 spectrophotometer. A554-524 represents the characteristics of mitochondrial potential and A554-characteristics of mitochondrial swelling.

[1] = test system: synaptosomes of cortex of rat brain; test: Glutamate-induced 45Ca2+ uptake into synaptosomes; type: biochemical, Wistar rats; settings: for % Ca of control (control-100%), glutamate-induced 45Ca2+ uptake into synaptosomes: rat cortex synaptosomes
Procedure, shortened: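 Cortical synaptosomes (P2 fraction) from 9-10-day-old Wistar rats, ~1.5-2 mg/ml protein in HEPES-buffered saline with glucose, pH 7.4, stimulated 5 min with 200 μM glutamate at 37° C. 45Ca2+ uptake measured by filtration and scintillation counting; specific uptake with compound expressed as percentage of glutamate-induced uptake, each corrected for unstimulated uptake.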

[2] = target: T1, human recombinant dopamine D2L receptor (Homo sapiens, UniProt P14416); test: Dopamine D2L antagonist activity ([35S]GTPγS binding, SPA); type: biochemical; settings: for Antagonist Activity As Measured by % Inhibition D2L / inhibition at 0.03 µM / inhibition at 0.1 µM / inhibition at 0.3 µM: two values = assay run twice; for inhibition at 0.03 µM / inhibition at 0.1 µM / inhibition at 0.3 µM / inhibition at 1 µM / inhibition at 3 µM: read-out: Antagonist Activity As Measured by % Inhibition D2L
T1 construct: expressed in transfected cells; host or cells: CHO cells
Protocol: To determine for agonist or antagonist activity of compounds of the invention in functional assays, human recombinant dopamine D2L receptor stably expressed in Chinese hamster ovary (CHO) cells (Senogles S E et al. J Biol Chem. 265(8): 4507, 1990) was used. Compounds of invention were pre-incubated with the membranes (0.1 mg/ml) and […] in modified HEPES buffer (20 mM HEPES, pH 7.4, 100 mM NaCl, 10 mM MgCl2, 1 mM DTT, 1 mM EDTA) for 20 minutes and Scintillation Proximity Assay (SPA) beads were added for another 60 minutes at 30° C. The reaction was initiated by 0.3 nM [^35S]GTPγS for an additional 15 minute incubation period. […] Compounds were screened at 3 μM or lower, using 0.4% DMSO as vehicle. Assay results are presented as the percent response of specific binding in Table 8.

T1 sequence (P14416 whole entry): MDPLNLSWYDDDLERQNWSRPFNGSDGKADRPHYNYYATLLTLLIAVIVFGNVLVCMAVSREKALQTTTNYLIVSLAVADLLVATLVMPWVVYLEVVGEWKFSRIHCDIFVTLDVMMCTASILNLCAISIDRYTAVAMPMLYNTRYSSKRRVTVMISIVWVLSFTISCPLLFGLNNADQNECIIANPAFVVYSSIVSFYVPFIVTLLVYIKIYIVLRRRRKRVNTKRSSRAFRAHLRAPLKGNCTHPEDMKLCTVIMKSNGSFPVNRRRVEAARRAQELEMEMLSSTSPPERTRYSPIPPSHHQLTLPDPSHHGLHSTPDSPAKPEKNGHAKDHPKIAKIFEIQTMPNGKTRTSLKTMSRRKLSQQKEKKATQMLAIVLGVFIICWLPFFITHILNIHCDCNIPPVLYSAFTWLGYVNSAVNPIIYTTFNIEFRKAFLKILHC

Cc1ccc2c(c1)c1c(n2CCc2nc(-c3ccccc3)cs2)CCN(C)C1 [Compound C1-5]
kainic acid-induced currents in Purkinje cells, % of Control values (AMPA receptors; compound 10^−5 M): 126 ± 18%
kainic acid-induced currents in Purkinje cells, % of Control values (AMPA receptors; compound 10^−6 M): 64 ± 23%
kainic acid-induced currents in Purkinje cells, % of Control values (AMPA receptors; compound 10^−7 M): 70 ± 23%
kainic acid-induced currents in Purkinje cells, % of Control values (AMPA receptors; compound 10^−8 M): 62 ± 12%
kainic acid-induced currents in Purkinje cells, % of Control values (AMPA receptors; compound 10^−9 M): 64 ± 8%
impairment of mitochondrial respiratory functions accompanying inhibition of MPT (rat brain mitochondria): impairment of mitochondrial respiratory functions
inhibition of glutamate-induced 45Ca2+ uptake into synaptosomes ([1]; 0.5 μM): about 22.5%
glutamate-induced 45Ca2+ uptake into synaptosomes of rat cortex, % Ca of control (control-100%) ([1]; C 100 μM): 130%
% Ca of control (control-100%), glutamate-induced 45Ca2+ uptake into synaptosomes ([1]; compound 0.1 μM): 96.3 ± 5.6%
% Ca of control (control-100%), glutamate-induced 45Ca2+ uptake into synaptosomes ([1]; compound 0.5 μM): 77.5 ± 0.8%
% Ca of control (control-100%), glutamate-induced 45Ca2+ uptake into synaptosomes ([1]; compound 1 μM): 94 ± 3.4%
% Ca of control (control-100%), glutamate-induced 45Ca2+ uptake into synaptosomes ([1]; compound 5 μM): 96 ± 1.5%
% Ca of control (control-100%), glutamate-induced 45Ca2+ uptake into synaptosomes ([1]; compound 10 μM): 117.2 ± 1.3%
% Ca of control (control-100%), glutamate-induced 45Ca2+ uptake into synaptosomes ([1]; compound 50 μM): 115.4 ± 4.8%
% Ca of control (control-100%), glutamate-induced 45Ca2+ uptake into synaptosomes ([1]; compound 100 μM): 30.1 ± 7.4%

CN1CCc2c(c3cc(Cl)ccc3n2CCc2noc(-c3ccccc3)n2)C1 [Compound C4-6]
kainic acid-induced currents in Purkinje cells, % of Control values (AMPA receptors; compound 3 × 10^−5 M): 149 ± 33%
kainic acid-induced currents in Purkinje cells, % of Control values (AMPA receptors; compound 10^−5 M): 152 ± 30%
kainic acid-induced currents in Purkinje cells, % of Control values (AMPA receptors; compound 10^−6 M): 140 ± 25%
kainic acid-induced currents in Purkinje cells, % of Control values (AMPA receptors; compound 10^−7 M): 120 ± 20%
kainic acid-induced currents in Purkinje cells, % of Control values (AMPA receptors; compound 10^−8 M): 100 ± 3%
impairment of mitochondrial respiratory functions accompanying inhibition of MPT (rat brain mitochondria): impairment of mitochondrial respiratory functions
concentration at which glutamate-induced 45Ca2+ uptake into synaptosomes was increased [1]: 50 to 100 µM
concentration at which glutamate-induced 45Ca2+ uptake into synaptosomes was inhibited [1]: 5 to 10 µM
glutamate-induced 45Ca2+ uptake into synaptosomes of rat cortex, % Ca of control (control-100%) ([1]; C 100 μM): 152.2%
% Ca of control (control-100%), glutamate-induced 45Ca2+ uptake into synaptosomes ([1]; compound 0.1 μM): 103.6 ± 11.4%
% Ca of control (control-100%), glutamate-induced 45Ca2+ uptake into synaptosomes ([1]; compound 0.5 μM): 96.9 ± 11.9%
% Ca of control (control-100%), glutamate-induced 45Ca2+ uptake into synaptosomes ([1]; compound 1 μM): 105.5 ± 5.2%
% Ca of control (control-100%), glutamate-induced 45Ca2+ uptake into synaptosomes ([1]; compound 5 μM): 86.5 ± 6.1%
% Ca of control (control-100%), glutamate-induced 45Ca2+ uptake into synaptosomes ([1]; compound 10 μM): 88.6 ± 2.8%
% Ca of control (control-100%), glutamate-induced 45Ca2+ uptake into synaptosomes ([1]; compound 50 μM): 122.1 ± 8.5%
% Ca of control (control-100%), glutamate-induced 45Ca2+ uptake into synaptosomes ([1]; compound 100 μM): 152.0 ± 6.7%

CN1CCc2c(c3ccccc3n2CCc2noc(-c3ccccc3)n2)C1 [Compound C4-1]
kainic acid-induced currents in Purkinje cells, % of Control values (AMPA receptors; compound 10^−5 M): 97 ± 4%
kainic acid-induced currents in Purkinje cells, % of Control values (AMPA receptors; compound 10^−6 M): 110 ± 5%
kainic acid-induced currents in Purkinje cells, % of Control values (AMPA receptors; compound 10^−7 M): 115 ± 3%
kainic acid-induced currents in Purkinje cells, % of Control values (AMPA receptors; compound 10^−8 M): 147 ± 11%
kainic acid-induced currents in Purkinje cells, % of Control values (AMPA receptors; compound 10^−9 M): 125 ± 6%
impairment of mitochondrial respiratory functions accompanying inhibition of MPT (rat brain mitochondria): impairment of mitochondrial respiratory functions
inhibition of glutamate-induced 45Ca2+ uptake into synaptosomes ([1]; 0.1-0.5 μM): about 20%
glutamate-induced 45Ca2+ uptake into synaptosomes of rat cortex, % Ca of control (control-100%) ([1]; C 0.1 μM): 79.4 ± 6.1%
glutamate-induced 45Ca2+ uptake into synaptosomes of rat cortex, % Ca of control (control-100%) ([1]; C 0.5 μM): 79.2 ± 10%
glutamate-induced 45Ca2+ uptake into synaptosomes of rat cortex, % Ca of control (control-100%) ([1]; C 1.0 μM): 106.1 ± 7.9%
glutamate-induced 45Ca2+ uptake into synaptosomes of rat cortex, % Ca of control (control-100%) ([1]; C 5.0 μM): 128% and 128 ± 4.5%
glutamate-induced 45Ca2+ uptake into synaptosomes of rat cortex, % Ca of control (control-100%) ([1]; C 10 μM): 107.6 ± 3.5%
glutamate-induced 45Ca2+ uptake into synaptosomes of rat cortex, % Ca of control (control-100%) ([1]; C 25 μM): 114.3 ± 0.5%
glutamate-induced 45Ca2+ uptake into synaptosomes of rat cortex, % Ca of control (control-100%) ([1]; C 50 μM): 110.1 ± 5.1%
glutamate-induced 45Ca2+ uptake into synaptosomes of rat cortex, % Ca of control (control-100%) ([1]; C 100 μM): 115.9 ± 8.8%

COc1ccc2c(c1)c1c(n2CCc2nc(-c3ccccc3)cs2)CCN(C)C1 [Compound C1-6]
kainic acid-induced currents in Purkinje cells, % of Control values (AMPA receptors; compound 3 × 10^−5 M): 130 ± 6%
kainic acid-induced currents in Purkinje cells, % of Control values (AMPA receptors; compound 10^−5 M): 135 ± 1%
kainic acid-induced currents in Purkinje cells, % of Control values (AMPA receptors; compound 10^−6 M): 146 ± 12%
kainic acid-induced currents in Purkinje cells, % of Control values (AMPA receptors; compound 10^−7 M): 116 ± 7%
kainic acid-induced currents in Purkinje cells, % of Control values (AMPA receptors; compound 10^−8 M): 101 ± 4%
kainic acid-induced currents in Purkinje cells, % of Control values (AMPA receptors; compound 10^−9 M): 100 ± 3%

COc1ccc(CCn2c3c(c4cc(C)ccc42)CN(C)CC3)cc1 [Compound 247]
Antagonist Activity As Measured by % Inhibition D2L ([2]; 0.03 uM): 52%
inhibition at 0.03 µM ([2]; 0.03 uM): 48%
inhibition at 0.1 µM ([2]; 0.1 uM): 66%
Antagonist Activity As Measured by % Inhibition D2L ([2]; 0.3 uM): 83%
inhibition at 0.3 µM ([2]; 0.3 uM): 81%
inhibition at 1 µM [2]: 89%
inhibition at 3 µM [2]: 91%

CN1CCc2c(c3cc(Cl)ccc3n2CCc2ccccc2)C1 [Compound 36, 8-chloro-2,3,4,5-tetrahydro-2-methyl-5-phenethyl-1H-pyrido[4,3-b]indole]
Antagonist Activity As Measured by % Inhibition D2L ([2]; 0.03 uM): 43%
inhibition at 0.03 µM ([2]; 0.03 uM): 48%
Antagonist Activity As Measured by % Inhibition D2L ([2]; 0.1 uM): 57%
inhibition at 0.1 µM ([2]; 0.1 uM): 73%
Antagonist Activity As Measured by % Inhibition D2L ([2]; 0.3 uM): 88%
inhibition at 0.3 µM ([2]; 0.3 uM): 83%
inhibition at 1 µM [2]: 85%
inhibition at 3 µM [2]: 104%

CN1CCc2c(c3cc(F)ccc3n2CCc2nc(-c3ccccc3)cs2)C1 [Compound C1-7]
concentration at which glutamate-induced 45Ca2+ uptake into synaptosomes was increased [1]: 5 to 100 µM
inhibition of glutamate-induced 45Ca2+ uptake into synaptosomes ([1]; 0.1-0.5 μM): ~27.3%
glutamate-induced 45Ca2+ uptake into synaptosomes of rat cortex, % Ca of control (control-100%) ([1]; C 100 μM): 139.8%
% Ca of control (control-100%), glutamate-induced 45Ca2+ uptake into synaptosomes ([1]; compound 0.1 μM): 77.5 ± 2.4%
% Ca of control (control-100%), glutamate-induced 45Ca2+ uptake into synaptosomes ([1]; compound 0.5 μM): 72.7 ± 0.3%
% Ca of control (control-100%), glutamate-induced 45Ca2+ uptake into synaptosomes ([1]; compound 1 μM): 98.6 ± 2.4%
% Ca of control (control-100%), glutamate-induced 45Ca2+ uptake into synaptosomes ([1]; compound 5 μM): 131.8 ± 8.8%
% Ca of control (control-100%), glutamate-induced 45Ca2+ uptake into synaptosomes ([1]; compound 10 μM): 134.5 ± 9.2%
% Ca of control (control-100%), glutamate-induced 45Ca2+ uptake into synaptosomes ([1]; compound 50 μM): 126.7 ± 7.7%
% Ca of control (control-100%), glutamate-induced 45Ca2+ uptake into synaptosomes ([1]; compound 100 μM): 139.8 ± 6.5%
